Laboratory results published in patent US9771341B2, “Piperazine carbamates and methods of making and using same” (Abide Therapeutics, Inc., priority 2015, dated 2017).

Legend:
Assay type in all cases: biochemical
[1] = biological target: T1, MAGL (Mus musculus, UniProt O35678); experiment: In vitro competitive activity-based protein profiling (mouse), MAGL; settings: for inhibition at 1 µM: mouse proteome, in vitro, read-out: % Inhibition at 1 μM MAGL; for IC50: mouse brain membrane fraction or cell lysates, 30 min preincubation at 37° C, FP-Rh probe
T1 construct: Proteomes (mouse brain membrane fraction or cell lysates); from tissue; host or cells: mouse brain membrane fraction (or unspecified cell lysates)
T1 sequence (O35678 1-303): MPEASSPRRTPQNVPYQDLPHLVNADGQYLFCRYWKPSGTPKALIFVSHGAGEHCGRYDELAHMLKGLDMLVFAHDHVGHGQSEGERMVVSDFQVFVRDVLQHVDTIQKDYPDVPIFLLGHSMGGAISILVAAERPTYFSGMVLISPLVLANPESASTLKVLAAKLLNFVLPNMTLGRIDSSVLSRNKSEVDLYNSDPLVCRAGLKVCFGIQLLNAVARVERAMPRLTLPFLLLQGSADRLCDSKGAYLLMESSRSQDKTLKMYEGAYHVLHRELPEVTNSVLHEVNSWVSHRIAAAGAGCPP
Protocol: (§1) In Vitro Competitive Activity-Based Protein Profiling (Mouse).
(§2) Proteomes (mouse brain membrane fraction or cell lysates) (50 μL, 1.0 mg/mL total protein concentration) were preincubated with varying concentrations of inhibitors at 37° C. After 30 min, FP-Rh (1.0 μL, 50 μM in DMSO) was added and the mixture was incubated for another 30 min at 37° C. Reactions were quenched with SDS loading buffer (50 μL-4×) and run on SDS-PAGE.

[2] = biological target: T2, FAAH (Mus musculus, UniProt O08914); experiment: In vitro competitive activity-based protein profiling (mouse), FAAH; settings: for inhibition at 1 µM: mouse proteome, in vitro; for IC50: mouse brain membrane fraction or cell lysates, 30 min preincubation at 37° C, FP-Rh probe
T2 construct: Proteomes (mouse brain membrane fraction or cell lysates); from tissue; host or cells: mouse brain membrane fraction (or unspecified cell lysates)
T2 sequence (O08914 1-579): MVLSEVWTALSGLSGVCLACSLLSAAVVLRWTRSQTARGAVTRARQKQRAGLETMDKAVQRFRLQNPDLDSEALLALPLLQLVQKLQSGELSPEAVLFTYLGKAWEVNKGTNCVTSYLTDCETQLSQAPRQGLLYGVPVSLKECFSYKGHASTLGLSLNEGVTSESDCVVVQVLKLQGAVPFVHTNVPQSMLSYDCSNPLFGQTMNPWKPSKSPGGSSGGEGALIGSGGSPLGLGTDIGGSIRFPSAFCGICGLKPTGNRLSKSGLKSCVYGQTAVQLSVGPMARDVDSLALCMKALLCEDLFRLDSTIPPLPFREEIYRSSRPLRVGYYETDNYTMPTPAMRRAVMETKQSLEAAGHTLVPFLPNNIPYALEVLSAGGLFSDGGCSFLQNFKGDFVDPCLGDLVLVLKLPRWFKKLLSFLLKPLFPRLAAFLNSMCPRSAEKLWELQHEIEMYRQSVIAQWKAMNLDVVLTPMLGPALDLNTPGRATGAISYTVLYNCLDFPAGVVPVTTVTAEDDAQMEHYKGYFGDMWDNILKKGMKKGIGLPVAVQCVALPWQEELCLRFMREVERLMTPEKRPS
Protocol: as §1
as §2, with “SDS-PAGE. Following gel imaging, serine hydrolase activity was determined by measuring fluorescent intensity of gel bands corresponding to MAGL, ABHD6 and FAAH using ImageJ 1.43u software.” for “SDS-PAGE.”

[3] = biological target: T3, ABHD6 (Mus musculus, UniProt Q8R2Y0); experiment: In vitro competitive activity-based protein profiling (mouse), ABHD6; settings: for inhibition at 1 µM: mouse proteome, in vitro, read-out: % Inhibition at 1 μM ABHD6; for IC50: mouse brain membrane fraction or cell lysates, 30 min preincubation at 37° C, FP-Rh probe
T3 construct: Proteomes (mouse brain membrane fraction or cell lysates); from tissue; host or cells: mouse brain membrane fraction (or unspecified cell lysates)
T3 sequence (Q8R2Y0 1-336): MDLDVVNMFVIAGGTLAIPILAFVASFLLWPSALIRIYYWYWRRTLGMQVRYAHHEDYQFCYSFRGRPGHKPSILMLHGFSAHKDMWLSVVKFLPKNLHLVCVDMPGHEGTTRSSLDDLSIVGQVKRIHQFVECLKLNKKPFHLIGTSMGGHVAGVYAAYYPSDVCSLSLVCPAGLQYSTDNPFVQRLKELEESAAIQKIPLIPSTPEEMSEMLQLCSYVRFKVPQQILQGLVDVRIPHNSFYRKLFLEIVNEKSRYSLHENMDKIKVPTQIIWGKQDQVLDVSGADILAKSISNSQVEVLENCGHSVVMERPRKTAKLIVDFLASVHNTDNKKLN
Protocol: as §1, §2

SMILES	inhibition at 1 µM [1]	IC50 [1]	inhibition at 1 µM [2]	IC50 [2]	inhibition at 1 µM [3]	IC50 [3]
O=C(OC(C(F)(F)F)C(F)(F)F)N1CCN(Cc2cc(N3CCC(CO)CC3)cc(C(F)(F)F)c2)CC1 [Example 91, 1,1,1,3,3,3-hexafluoropropan-2-yl 4-(3-(4-(hydroxymethyl)piperidin-1-yl)-5-(trifluoromethyl)benzyl)piperazine-1-carboxylate]	> 75%	100 to 1000 nM	< 25%	> 1000 nM	> 75%	100 to 1000 nM
O=C(OC(C(F)(F)F)C(F)(F)F)N1CCN(Cc2ccc(C(F)(F)F)cc2N2CCC(CO)C2)CC1 (stereo not drawn) [Example 73, 1,1,1,3,3,3-hexafluoropropan-2-yl 4-(2-(3-(hydroxymethyl)pyrrolidin-1-yl)-4-(trifluoromethyl)benzyl)piperazine-1-carboxylate]	> 75%	< 100 nM	< 25%	> 1000 nM	> 75%	100 to 1000 nM
O=C(OC(C(F)(F)F)C(F)(F)F)N1CCN(Cc2ccc(N3CC4CCC(C3)O4)cc2OC(F)(F)F)CC1 [Example 28, 1,1,1,3,3,3-hexafluoropropan-2-yl 4-(4-(8-oxa-3-azabicyclo[3.2.1]octan-3-yl)-2-(trifluoromethoxy)benzyl)piperazine-1-carboxylate]	> 75%	100 to 1000 nM	< 25%	> 1000 nM	< 25%	> 1000 nM
O=C(OC(C(F)(F)F)C(F)(F)F)N1CCN(Cc2ccc(Cl)cc2N2CC3CN(C4CC4)CC3C2)CC1 (stereo not drawn) [Example 64, 1,1,1,3,3,3-hexafluoropropan-2-yl 4-(4-chloro-2-(5-cyclopropylhexahydropyrrolo[3,4-c]pyrrol-2(1H)-yl)benzyl)piperazine-1-carboxylate]	> 75%	100 to 1000 nM	< 25%	> 1000 nM	< 25%	> 1000 nM
CCOC(=O)C1CCCN1c1cc(CN2CCN(C(=O)OC(C(F)(F)F)C(F)(F)F)CC2)ccc1C(F)(F)F (stereo not drawn) [Example 78, 1,1,1,3,3,3-hexafluoropropan-2-yl 4-(3-(2-(ethoxycarbonyl)pyrrolidin-1-yl)-4-(trifluoromethyl)benzyl)piperazine-1-carboxylate]	> 75%	< 100 nM	< 25%	> 1000 nM	> 75%	100 to 1000 nM
O=C(OC(C(F)(F)F)C(F)(F)F)N1CCN(Cc2c(N3CC4CCC(C3)O4)cccc2C(F)(F)F)CC1 [Example 50, 1,1,1,3,3,3-hexafluoropropan-2-yl 4-(2-(8-oxa-3-azabicyclo[3.2.1]octan-3-yl)-6-(trifluoromethyl)benzyl)piperazine-1-carboxylate]	< 25%	–	< 25%	–	< 25%	–
O=C(OC(C(F)(F)F)C(F)(F)F)N1CCN(Cc2ccc(C(F)(F)F)c(N3CCCC3CO)c2)CC1 (stereo not drawn) [Example 79, 1,1,1,3,3,3-hexafluoropropan-2-yl 4-(3-(2-(hydroxymethyl)pyrrolidin-1-yl)-4-(trifluoromethyl)benzyl)piperazine-1-carboxylate]	> 75%	< 100 nM	< 25%	> 1000 nM	> 75%	< 100 nM
CCOC(=O)C1CCCN1c1cc(CN2CCN(C(=O)OC(C(F)(F)F)C(F)(F)F)CC2)cc(C(F)(F)F)c1 (stereo not drawn) [Example 87, 1,1,1,3,3,3-hexafluoropropan-2-yl 4-(3-(2-(ethoxycarbonyl)pyrrolidin-1-yl)-5-(trifluoromethyl)benzyl)piperazine-1-carboxylate]	> 75%	< 100 nM	< 25%	> 1000 nM	> 75%	100 to 1000 nM
CS(=O)(=O)N[C@H]1CCN(c2cccc(C(F)(F)F)c2CN2CCN(C(=O)OC(C(F)(F)F)C(F)(F)F)CC2)C1 [Example 48, 1,1,1,3,3,3-hexafluoropropan-2-yl (S)-4-(2-(3-(methylsulfonamido)pyrrolidin-1-yl)-6-(trifluoromethyl)benzyl)piperazine-1-carboxylate]	25 to 75%	–	< 25%	–	< 25%	–
O=C(OC(C(F)(F)F)C(F)(F)F)N1CCN(Cc2ccc(CN3CCCC3)cc2OC(F)(F)F)CC1 [Example 25, 1,1,1,3,3,3-hexafluoropropan-2-yl 4-(4-(pyrrolidin-1-ylmethyl)-2-(trifluoromethoxy)benzyl)piperazine-1-carboxylate]	> 75%	100 to 1000 nM	< 25%	> 1000 nM	< 25%	> 1000 nM
O=C(OC(C(F)(F)F)C(F)(F)F)N1CCN(Cc2ccc(C(F)(F)F)cc2N2CCC3(CCCN3C3CC3)CC2)CC1 [Example 67, 1,1,1,3,3,3-hexafluoropropan-2-yl 4-(2-(1-cyclopropyl-1,8-diazaspiro[4.5]decan-8-yl)-4-(trifluoromethyl)benzyl)piperazine-1-carboxylate]	> 75%	100 to 1000 nM	< 25%	> 1000 nM	< 25%	> 1000 nM
O=C(OC(C(F)(F)F)C(F)(F)F)N1CCN(Cc2cccc(CN3CCOCC3)c2F)CC1 [Example 22, 1,1,1,3,3,3-hexafluoropropan-2-yl 4-(2-fluoro-3-(morpholinomethyl)benzyl)piperazine-1-carboxylate]	> 75%	< 100 nM	< 25%	> 1000 nM	> 75%	100 to 1000 nM
O=C(O)[C@@H]1CCCN1c1cc(CN2CCN(C(=O)OC(C(F)(F)F)C(F)(F)F)CC2)ccc1C(F)(F)F [Example 77, (5-((4-(((1,1,1,3,3,3-hexafluoropropan-2-yl)oxy)carbonyl)piperazin-1-yl)methyl)-2-(trifluoromethyl)phenyl)proline]	> 75%	100 to 1000 nM	< 25%	> 1000 nM	> 75%	> 1000 nM
Cc1c(CN2CCC(F)CC2)cccc1CN1CCN(C(=O)OC(C(F)(F)F)C(F)(F)F)CC1 [Example 15, 1,1,1,3,3,3-hexafluoropropan-2-yl 4-(3-((4-fluoropiperidin-1-yl)methyl)-2-methylbenzyl)piperazine-1-carboxylate]	> 75%	< 100 nM	< 25%	> 1000 nM	> 75%	100 to 1000 nM
Cc1c(CN2CCCC2)cccc1CN1CCN(C(=O)OC(C(F)(F)F)C(F)(F)F)CC1 [Example 13, 1,1,1,3,3,3-hexafluoropropan-2-yl 4-(2-methyl-3-(pyrrolidin-1-ylmethyl)benzyl)piperazine-1-carboxylate]	> 75%	100 to 1000 nM	< 25%	> 1000 nM	> 75%	100 to 1000 nM
